Results published in EP0942906B1, “COMPOUNDS USEFUL FOR INHIBITION OF FARNESYL PROTEIN TRANSFERASE” (SCHERING CORPORATION, priority 1996, dated 1998).
pIC50: −log10 of the molar value. Read-outs that look alike come from different tables or passages of the source.

Legend:
Conditions in all cases: range stated for the listed group of compounds
[1] = target: farnesyl protein transferase (Homo sapiens, UniProt P49354+P49356); assay: FPT IC50, inhibition of farnesyl protein transferase, in vitro enzyme assay (procedure of WO 95/10516); assay type: biochemical
farnesyl protein transferase, sequence (P49356 whole entry, one chain of several): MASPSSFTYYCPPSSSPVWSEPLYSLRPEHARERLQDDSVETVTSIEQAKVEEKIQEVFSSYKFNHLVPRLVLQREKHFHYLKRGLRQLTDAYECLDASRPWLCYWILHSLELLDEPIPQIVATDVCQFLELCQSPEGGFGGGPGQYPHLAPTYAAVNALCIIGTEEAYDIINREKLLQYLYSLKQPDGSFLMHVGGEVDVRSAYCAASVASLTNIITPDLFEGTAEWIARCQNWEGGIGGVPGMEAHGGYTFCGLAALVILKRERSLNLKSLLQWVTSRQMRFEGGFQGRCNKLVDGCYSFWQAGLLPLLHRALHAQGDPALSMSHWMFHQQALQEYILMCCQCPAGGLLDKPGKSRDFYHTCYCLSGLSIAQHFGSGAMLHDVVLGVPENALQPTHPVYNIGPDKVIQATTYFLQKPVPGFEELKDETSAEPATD
Procedure: (§1) FPT IC50 (inhibition of farnesyl protein transferase, in vitro enzyme assay) and COS Cell IC50 (Cell-Based Assay) were determined following the assay procedures described in WO 95/10516, published April 20, 1995. GGPT IC50 (inhibition of geranylgeranyl protein transferase, in vitro enzyme assay), Cell Mat Assay, and anti-tumor activity (in vivo anti-tumor studies) could be determined by the assay procedures described in WO 95/10516.

Human tumor cells = assay: Soft Agar Assay (anchorage-independent growth, colony count after MTT staining); assay type: cell-based
Procedure: Anchorage-independent growth is a characteristic of tumorigenic cell lines. Human tumor cells are suspended in growth medium containing 0.3% agarose and an indicated concentration of a farnesyl transferase inhibitor. The solution is overlayed onto growth medium solidified with 0.6% agarose containing the same concentration of farnesyl transferase inhibitor as the top layer. After the top layer is solidified, plates are incubated for 10-16 days at 37°C under 5% CO2 to allow colony outgrowth. After incubation, the colonies are stained by overlaying the agar with a solution of MTT (3-[4,5-dimethylthiazol-2-yl]-2.5-diphenyltetrazolium bromide, Thiazolyl blue) (1 mg/mL in PBS). Colonies can be counted and the IC50's can be determined.

COS Cell = COS Cell IC50 (Cell-Based Assay, procedure of WO 95/10516)
Procedure: as §1

[2] = ras form not stated, read-out: FPT IC50
[3] = k-ras, read-out: FPT IC50 (k-ras)
[4] = H-ras, read-out: FPT IC50 (H-ras)

pIC50 [1, 2]	pIC50 (Human tumor cells)	pIC50 [1, 3]	pIC50 [1, 4]	Structure (SMILES)	pIC50 (COS Cell; read-out: Cos Cell)	pIC50 (COS Cell; read-out: Cos Cell IC50)
7.74 to 9.15	≤ 7.71			COC(=O)CCCCCC(=O)N1CCC(CC(=O)N2CCC([C@H]3c4ncc(Br)cc4CCc4cc(Cl)cc(Br)c43)CC2)CC1 [Compound 68.0-B]	≤ 8.05	
7.74 to 9.15	≤ 7.71			O=C(O)C[C@H](O)CC(=O)N1CCC(CC(=O)N2CCC([C@H]3c4ncc(Br)cc4CCc4cc(Cl)cc(Br)c43)CC2)CC1 [Compound 74.0-B]	≤ 8.05	
7.74 to 9.15	≤ 7.71			O=C(CC1CCN(C(=O)Cn2cncn2)CC1)N1CCC([C@H]2c3ncc(Br)cc3CCc3cc(Cl)cc(Br)c32)CC1 [Compound 57.0-B]	≤ 8.05	
7.74 to 9.15	≤ 7.71			O=C(CC1CCN(C(=O)CN2CCCCC2)CC1)N1CCC([C@H]2c3ncc(Br)cc3CCc3cc(Cl)cc(Br)c32)CC1 [Compound 75.0-B]	≤ 8.05	
7.74 to 9.15	≤ 7.71			O=C(CON=Cc1cc[n+]([O-])cc1)N1CCC(CC(=O)N2CCC(C3c4ncc(Br)cc4CCc4cc(Cl)cc(Br)c43)CC2)CC1 (stereo not shown) [Compound 22.0-B]	≤ 8.05	
7.74 to 9.15	≤ 7.71			O=C(CC1CCN(C(=O)CC2CCCO2)CC1)N1CCC([C@H]2c3ncc(Br)cc3CCc3cc(Cl)cc(Br)c32)CC1 (stereo partly shown) [Compound 114.4-B]	≤ 8.05	
	≤ 7.71		7.50 to 8.70	COC(=O)CCC(=O)N1CCC(CC(=O)N2CCC(C3c4ncc(Br)cc4CCc4cc(Cl)cc(Br)c43)CC2)CC1 (stereo not shown) [Compound 15.2]		6.15 to 8.00
7.74 to 9.15	≤ 7.71			CCOC(=O)c1ncn(CC(=O)N2CCC(CC(=O)N3CCC([C@H]4c5ncc(Br)cc5CCc5cc(Cl)cc(Br)c54)CC3)CC2)c1C [Compound 54.0-B]	≤ 8.05	
7.74 to 9.15	≤ 7.71			O=C(CON=Cc1ccccc1O)N1CCC(CC(=O)N2CCC(C3c4ncc(Br)cc4CCc4cc(Cl)cc(Br)c43)CC2)CC1 (stereo not shown) [Compound 95.0-B]	≤ 8.05	
7.74 to 9.15	≤ 7.71		7.50 to 8.70	CC(C)=NOCCC(=O)N1CCC(CC(=O)N2CCC([C@H]3c4ncc(Br)cc4CCc4cc(Cl)cc(Br)c43)CC2)CC1 [Compound 23.0-B]	≤ 8.05	
	≤ 7.71	7.15 to 7.84	7.50 to 8.70	O=C(CC1CCN(C(=O)[C@@H]2CCCN2)CC1)N1CCC([C@H]2c3ncc(Br)cc3CCc3cc(Cl)cc(Br)c32)CC1 [Compound 10.0]		6.15 to 8.00
7.74 to 9.15	≤ 7.71			O=C(CC1CCN(C(=O)CC2COCCO2)CC1)N1CCC([C@H]2c3ncc(Br)cc3CCc3cc(Cl)cc(Br)c32)CC1 (stereo partly shown) [Compound 114.2-B]	≤ 8.05	
7.74 to 9.15	≤ 7.71	7.15 to 7.84		Cc1nccn1CC(=O)N1CCC(CC(=O)N2CCC([C@H]3c4ncc(Br)cc4CCc4cc(Cl)cc(Br)c43)CC2)CC1 [Compound 10.0-B]	≤ 8.05	
	≤ 7.71		7.50 to 8.70	COC(=O)C(=O)N1CCC(CC(=O)N2CCC([C@H]3c4ncc(Br)cc4CCc4cc(Cl)cc(Br)c43)CC2)CC1 [Compound 104.0-B]	≤ 8.05	
7.74 to 9.15	≤ 7.71		7.50 to 8.70	O=C(CC1CCN(C(=O)CN2C(=O)CSC2=O)CC1)N1CCC([C@H]2c3ncc(Br)cc3CCc3cc(Cl)cc(Br)c32)CC1 [Compound 79.0-B]	≤ 8.05	
7.74 to 9.15	≤ 7.71			CN(C)C(=O)C(=O)N1CCC(CC(=O)N2CCC([C@H]3c4ncc(Br)cc4CCc4cc(Cl)cc(Br)c43)CC2)CC1 [Compound 33.0-B]	≤ 8.05	
	≤ 7.71	7.15 to 7.84	7.50 to 8.70	CN(C)CCC(=O)N1CCC(CC(=O)N2CCC(C3c4ncc(Br)cc4CCc4cc(Cl)cc(Br)c43)CC2)CC1 (single isomer, unassigned; (+)) [Compound 12.3]		6.15 to 8.00
7.74 to 9.15	≤ 7.71			O=C(CC1CCN(C(=O)Cn2cnc([N+](=O)[O-])c2)CC1)N1CCC([C@H]2c3ncc(Br)cc3CCc3cc(Cl)cc(Br)c32)CC1 [Compound 26.0-B]	≤ 8.05	
7.74 to 9.15	≤ 7.71	7.15 to 7.84		O=C(CC1CCN(C(=O)Cn2cnc3cccnc32)CC1)N1CCC([C@H]2c3ncc(Br)cc3CCc3cc(Cl)cc(Br)c32)CC1 [Compound 13.0-B]	≤ 8.05	
7.74 to 9.15	≤ 7.71			O=C(O)c1cccn1CC(=O)N1CCC(CC(=O)N2CCC([C@H]3c4ncc(Br)cc4CCc4cc(Cl)cc(Br)c43)CC2)CC1 [Compound 52.0-B]	≤ 8.05	
7.74 to 9.15	≤ 7.71			CC(C)(C)OC(=O)NCCCC(=O)N1CCC(CC(=O)N2CCC([C@H]3c4ncc(Br)cc4CCc4cc(Cl)cc(Br)c43)CC2)CC1 [Compound 89.0-B]	≤ 8.05	
7.74 to 9.15	≤ 7.71			O=C(Cc1cccs1)N1CCC(CC(=O)N2CCC([C@H]3c4ncc(Br)cc4CCc4cc(Cl)cc(Br)c43)CC2)CC1 [Compound 82.0-B]	≤ 8.05	
7.74 to 9.15	≤ 7.71			NCCC(=O)N1CCC(CC(=O)N2CCC([C@H]3c4ncc(Br)cc4CCc4cc(Cl)cc(Br)c43)CC2)CC1 [Compound 88.0-B]	≤ 8.05	
7.74 to 9.15	≤ 7.71			COC(=O)CCCCC(=O)N1CCC(CC(=O)N2CCC([C@H]3c4ncc(Br)cc4CCc4cc(Cl)cc(Br)c43)CC2)CC1 [Compound 101.0-B]	≤ 8.05	
7.74 to 9.15	≤ 7.71			O=C1NC(=O)C(CC(=O)N2CCC(CC(=O)N3CCC([C@H]4c5ncc(Br)cc5CCc5cc(Cl)cc(Br)c54)CC3)CC2)N1 (stereo partly shown) [Compound 77.0-B]	≤ 8.05	
7.74 to 9.15	≤ 7.71			CCOC(=O)C[C@@H](CC(=O)N1CCC(CC(=O)N2CCC([C@H]3c4ncc(Br)cc4CCc4cc(Cl)cc(Br)c43)CC2)CC1)OC(C)=O [Compound 16.0-B]	≤ 8.05	
7.74 to 9.15	≤ 7.71			CC(=O)C(=O)N1CCC(CC(=O)N2CCC([C@H]3c4ncc(Br)cc4CCc4cc(Cl)cc(Br)c43)CC2)CC1 [Compound 72.0-B]	≤ 8.05	
7.74 to 9.15	≤ 7.71			O=C(CO)N1CCC(CC(=O)N2CCC([C@H]3c4ncc(Br)cc4CCc4cc(Cl)cc(Br)c43)CC2)CC1 [Compound 37.0-B]	≤ 8.05	
7.74 to 9.15	≤ 7.71			CCOC(=O)c1c(C)ncn1CC(=O)N1CCC(CC(=O)N2CCC([C@H]3c4ncc(Br)cc4CCc4cc(Cl)cc(Br)c43)CC2)CC1 [Compound 53.0-B]	≤ 8.05	

Structure (SMILES)	pIC50 [1, 2]	pIC50 (Human tumor cells)	pIC50 [1, 3]	pIC50 [1, 4]	pIC50 (COS Cell; read-out: Cos Cell)	pIC50 (COS Cell; read-out: Cos Cell IC50)
O=C(Cc1c[nH]cn1)N1CCC(CC(=O)N2CCC([C@H]3c4ncc(Br)cc4CCc4cc(Cl)cc(Br)c43)CC2)CC1 [Compound 30.0-B]	7.74 to 9.15	≤ 7.71			≤ 8.05	
CC(C)=NOCC(=O)N1CCC(CC(=O)N2CCC([C@H]3c4ncc(Br)cc4CCc4cc(Cl)cc(Br)c43)CC2)CC1 [Compound 9.0-B]	7.74 to 9.15	≤ 7.71	7.15 to 7.84		≤ 8.05	
O=C(O)CCCCC(=O)N1CCC(CC(=O)N2CCC([C@H]3c4ncc(Br)cc4CCc4cc(Cl)cc(Br)c43)CC2)CC1 [Compound 107.0-B]	7.74 to 9.15	≤ 7.71			≤ 8.05	
